Broadly, the IC50 is the concentration that inhibits the measured activity by half.

For three molecules, IC50 results are on record in PubChem BioAssay AID877 (University of Pittsburgh Molecular Library Screening Center, 2007).

Each structure is given as a SMILES string. The source made the active and inactive calls. How the calls were made is not given here.

For the assay, the target named is Serine/threonine-protein kinase PLK1 (Homo sapiens) (UniProt P53350). Kind of assay: potency against Plk1 PBD phosphopeptide binding – biochemical, fluorescence polarization, dose response (AID 877). Background: Fluorescence polarisation rises when a labelled molecule tumbles more slowly, as on binding a larger partner.
Chain of Serine/threonine-protein kinase PLK1 (Homo sapiens) (P53350 whole entry, looked up): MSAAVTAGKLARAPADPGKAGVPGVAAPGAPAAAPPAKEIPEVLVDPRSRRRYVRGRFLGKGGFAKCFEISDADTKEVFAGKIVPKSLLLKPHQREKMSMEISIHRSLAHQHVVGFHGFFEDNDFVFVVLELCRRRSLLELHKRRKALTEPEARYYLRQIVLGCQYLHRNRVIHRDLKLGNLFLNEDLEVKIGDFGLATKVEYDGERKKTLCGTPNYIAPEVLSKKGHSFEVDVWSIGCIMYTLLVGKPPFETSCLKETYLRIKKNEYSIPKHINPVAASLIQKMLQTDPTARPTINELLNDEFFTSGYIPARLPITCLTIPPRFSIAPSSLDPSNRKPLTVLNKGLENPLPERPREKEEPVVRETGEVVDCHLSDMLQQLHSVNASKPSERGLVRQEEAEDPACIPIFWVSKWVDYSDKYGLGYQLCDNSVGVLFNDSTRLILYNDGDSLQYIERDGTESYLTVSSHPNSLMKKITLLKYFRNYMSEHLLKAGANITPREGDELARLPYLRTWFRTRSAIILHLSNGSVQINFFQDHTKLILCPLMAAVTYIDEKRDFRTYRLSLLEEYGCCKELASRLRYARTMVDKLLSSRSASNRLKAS
Regarding `CCC(Sc1nc2n[nH]c(C)c2c(=N)n1-c1cccc(Cl)c1)C(=O)NCCOC` (stereo not drawn), the IC50 is > 50 µM (inactive).

On to `O=C(O)COc1ccc(Br)cc1/C=N/O`, for which the IC50 was > 50 µM (inactive).

For the molecule `O=C1C(C2=C(O)c3ccccc3C2=O)=Nc2ccccc21`, the IC50 is > 50 µM (inactive).
